# Assay results: ChEMBL document CHEMBL3885881, “DrugMatrix”
# Organism: Rattus norvegicus
# Experiment: DrugMatrix - Regimen: Daily Repeat
# Format: toxicity, organism-based, Sprague-Dawley
# Design: regimen Daily Repeat, gender Male, age 6-8 weeks
# Details: in vivo, […]; for NEUTROPHIL / PLATELET COUNT / ABSOLUTE BASOPHIL / ABSOLUTE EOSINOPHIL / ABSOLUTE LYMPHOCYTE / ABSOLUTE MONOCYTE / ABSOLUTE SEGMENTED NEUTROPHIL / BASOPHIL / EOSINOPHIL / ERYTHROCYTE COUNT / HEMATOCRIT / HEMOGLOBIN / LEUKOCYTE COUNT / LYMPHOCYTE / MEAN CORPUSCULAR HEMOGLOBIN / MEAN CORPUSCULAR HEMOGLOBIN CONCENTRATION / MEAN CORPUSCULAR VOLUME / MONOCYTE / NUCLEATED RED BLOOD CELLS: tissue Blood; for ALANINE AMINOTRANSFERASE / ALBUMIN / ALKALINE PHOSPHATASE / ASPARTATE AMINOTRANSFERASE / BLOOD UREA NITROGEN / CHLORIDE / CHOLESTEROL / CREATINE PHOSPHOKINASE / CREATININE / GLUCOSE / LACTATE DEHYDROGENASE / LIPASE / PHOSPHORUS / POTASSIUM / TOTAL BILIRUBIN / TOTAL PROTEIN / URIC ACID / SODIUM / CARBON DIOXIDE: tissue Plasma
# [1] = ip, 2 mg/kg, route intraperitoneal, dose level High, time 28 day, vehicle 100 % SALINE
# [2] = ip, 2 mg/kg, route intraperitoneal, dose level High, time 14 day, vehicle 100 % SALINE
# [3] = po, 66 mg/kg, 72 h, route oral GAVAGE, dose level High, time 3 day
# [4] = po, 66 mg/kg, 120 h, route oral GAVAGE, dose level High, time 5 day
# [5] = po, 72 h, route oral GAVAGE, dose 6.6 mg/Kg, dose level Low, time 3 day
# [6] = po, 120 h, route oral GAVAGE, dose 6.6 mg/Kg, dose level Low, time 5 day
substance,measurement,setting,value
CADMIUM DICHLORIDE,NEUTROPHIL,[1],24.62%
same,PLATELET COUNT,[1],1656.44 x10E3/uL
same,ALANINE AMINOTRANSFERASE,[2],35.4 u/L
same,ALBUMIN,[2],3.24 G/DL
same,ALKALINE PHOSPHATASE,[2],169.6 u/L
same,ASPARTATE AMINOTRANSFERASE,[2],182.2 u/L
same,BLOOD UREA NITROGEN,[2],23.8 mg/dL
same,CHLORIDE,[2],109.2 MEQ/L
same,CHOLESTEROL,[2],58.2 mg/dL
same,CREATINE PHOSPHOKINASE,[2],323 u/L
same,CREATININE,[2],0.3 mg/dL
same,GLUCOSE,[2],101 mg/dL
same,LACTATE DEHYDROGENASE,[2],321.4 u/L
same,LIPASE,[2],87.6 u/L
same,PHOSPHORUS,[2],10.28 mg/dL
same,POTASSIUM,[2],6.42 MEQ/L
same,TOTAL BILIRUBIN,[2],0.26 mg/dL
same,TOTAL PROTEIN,[2],5.94 G/DL
same,URIC ACID,[2],2.08 mg/dL
same,ALANINE AMINOTRANSFERASE,[1],39.44 u/L
same,ALKALINE PHOSPHATASE,[1],111 u/L
same,ASPARTATE AMINOTRANSFERASE,[1],167.44 u/L
same,BLOOD UREA NITROGEN,[1],19.67 mg/dL
same,CHLORIDE,[1],108.89 MEQ/L
same,CHOLESTEROL,[1],51.67 mg/dL
same,CREATININE,[1],0.44 mg/dL
same,GLUCOSE,[1],106.78 mg/dL
same,LACTATE DEHYDROGENASE,[1],230.56 u/L
same,LIPASE,[1],45.56 u/L
same,POTASSIUM,[1],6.7 MEQ/L
same,SODIUM,[1],151 MEQ/L
same,TOTAL BILIRUBIN,[1],0.28 mg/dL
same,TOTAL PROTEIN,[1],6.61 G/DL
same,URIC ACID,[1],1.71 mg/dL
same,ABSOLUTE BASOPHIL,[3],0 CELLS/uL
same,ABSOLUTE EOSINOPHIL,[3],54 CELLS/uL
same,ABSOLUTE LYMPHOCYTE,[3],13921.33 CELLS/uL
same,ABSOLUTE MONOCYTE,[3],108.67 CELLS/uL
same,ABSOLUTE SEGMENTED NEUTROPHIL,[3],2549.33 CELLS/uL
same,BASOPHIL,[3],0%
same,EOSINOPHIL,[3],0.33%
same,ERYTHROCYTE COUNT,[3],5.45 x10E6/uL
same,HEMATOCRIT,[3],35.37%
same,HEMOGLOBIN,[3],13.67 G/DL
same,LEUKOCYTE COUNT,[3],16.63 x10E3/uL
same,LYMPHOCYTE,[3],83.67%
same,MEAN CORPUSCULAR HEMOGLOBIN,[3],25.13 pg
same,MEAN CORPUSCULAR HEMOGLOBIN CONCENTRATION,[3],38.63 G/DL
same,MEAN CORPUSCULAR VOLUME,[3],64.97 fL
same,MONOCYTE,[3],0.67%
same,NEUTROPHIL,[3],15.33%
same,NUCLEATED RED BLOOD CELLS,[3],0 /100WBC
same,PLATELET COUNT,[3],1218.67 x10E3/uL
same,ALANINE AMINOTRANSFERASE,[3],57.67 u/L
same,ALBUMIN,[3],4.1 G/DL
same,ALKALINE PHOSPHATASE,[3],436 u/L
same,ASPARTATE AMINOTRANSFERASE,[3],100 u/L
same,BLOOD UREA NITROGEN,[3],12.33 mg/dL
same,CARBON DIOXIDE,[3],25 mmol/L
same,CHOLESTEROL,[3],60.33 mg/dL
same,CREATINE PHOSPHOKINASE,[3],279.67 u/L
same,CREATININE,[3],0.17 mg/dL
same,LACTATE DEHYDROGENASE,[3],310 u/L
same,LIPASE,[3],11.33 u/L
same,PHOSPHORUS,[3],12.93 mg/dL
same,POTASSIUM,[3],7.2 MEQ/L
same,TOTAL BILIRUBIN,[3],0.2 mg/dL
same,TOTAL PROTEIN,[3],5.77 G/DL
same,ABSOLUTE BASOPHIL,[4],0 CELLS/uL
same,ABSOLUTE EOSINOPHIL,[4],0 CELLS/uL
same,ABSOLUTE LYMPHOCYTE,[4],13248 CELLS/uL
same,ABSOLUTE MONOCYTE,[4],120 CELLS/uL
same,ABSOLUTE SEGMENTED NEUTROPHIL,[4],1432 CELLS/uL
same,BASOPHIL,[4],0%
same,EOSINOPHIL,[4],0%
same,ERYTHROCYTE COUNT,[4],5.79 x10E6/uL
same,HEMATOCRIT,[4],35.4%
same,HEMOGLOBIN,[4],14.15 G/DL
same,LEUKOCYTE COUNT,[4],14.8 x10E3/uL
same,LYMPHOCYTE,[4],88%
same,MEAN CORPUSCULAR HEMOGLOBIN,[4],24.55 pg
same,MEAN CORPUSCULAR HEMOGLOBIN CONCENTRATION,[4],39.95 G/DL
same,MEAN CORPUSCULAR VOLUME,[4],61.35 fL
same,MONOCYTE,[4],1%
same,NEUTROPHIL,[4],11%
same,NUCLEATED RED BLOOD CELLS,[4],0 /100WBC
same,PLATELET COUNT,[4],1357 x10E3/uL
same,ALANINE AMINOTRANSFERASE,[4],63 u/L
same,ALBUMIN,[4],4.1 G/DL
same,ALKALINE PHOSPHATASE,[4],217.5 u/L
same,ASPARTATE AMINOTRANSFERASE,[4],122 u/L
same,BLOOD UREA NITROGEN,[4],14 mg/dL
same,CARBON DIOXIDE,[4],18.5 mmol/L
same,CHLORIDE,[4],112 MEQ/L
same,CHOLESTEROL,[4],36 mg/dL
same,CREATINE PHOSPHOKINASE,[4],975 u/L
same,CREATININE,[4],0.2 mg/dL
same,GLUCOSE,[4],189 mg/dL
same,LACTATE DEHYDROGENASE,[4],198.5 u/L
same,LIPASE,[4],11.5 u/L
same,POTASSIUM,[4],6.8 MEQ/L
same,TOTAL BILIRUBIN,[4],0.1 mg/dL
same,TOTAL PROTEIN,[4],5.5 G/DL
same,URIC ACID,[4],2.35 mg/dL
same,ABSOLUTE BASOPHIL,[5],0 CELLS/uL
same,ABSOLUTE EOSINOPHIL,[5],0 CELLS/uL
same,ABSOLUTE LYMPHOCYTE,[5],17172.67 CELLS/uL
same,ABSOLUTE MONOCYTE,[5],193.33 CELLS/uL
same,ABSOLUTE SEGMENTED NEUTROPHIL,[5],1767.33 CELLS/uL
same,BASOPHIL,[5],0%
same,EOSINOPHIL,[5],0%
same,ERYTHROCYTE COUNT,[5],5.25 x10E6/uL
same,HEMATOCRIT,[5],32.93%
same,HEMOGLOBIN,[5],13.07 G/DL
same,LEUKOCYTE COUNT,[5],19.13 x10E3/uL
same,MEAN CORPUSCULAR HEMOGLOBIN CONCENTRATION,[5],39.7 G/DL
same,MONOCYTE,[5],1%
same,NUCLEATED RED BLOOD CELLS,[5],0 /100WBC
same,PLATELET COUNT,[5],1216 x10E3/uL
same,ALANINE AMINOTRANSFERASE,[5],81 u/L
same,ALBUMIN,[5],4 G/DL
same,ALKALINE PHOSPHATASE,[5],508.5 u/L
same,ASPARTATE AMINOTRANSFERASE,[5],91.67 u/L
same,BLOOD UREA NITROGEN,[5],11.67 mg/dL
same,CARBON DIOXIDE,[5],26 mmol/L
same,CHOLESTEROL,[5],77.33 mg/dL
same,CREATINE PHOSPHOKINASE,[5],283.33 u/L
same,CREATININE,[5],0.19 mg/dL
same,GLUCOSE,[5],152.67 mg/dL
same,LACTATE DEHYDROGENASE,[5],195 u/L
same,LIPASE,[5],12.33 u/L
same,PHOSPHORUS,[5],11.57 mg/dL
same,POTASSIUM,[5],6.8 MEQ/L
same,TOTAL BILIRUBIN,[5],0.2 mg/dL
same,TOTAL PROTEIN,[5],5.57 G/DL
same,URIC ACID,[5],1.3 mg/dL
same,ABSOLUTE BASOPHIL,[6],0 CELLS/uL
same,ABSOLUTE EOSINOPHIL,[6],0 CELLS/uL
same,ABSOLUTE LYMPHOCYTE,[6],4729 CELLS/uL
same,ABSOLUTE MONOCYTE,[6],0 CELLS/uL
same,ABSOLUTE SEGMENTED NEUTROPHIL,[6],237.67 CELLS/uL
same,BASOPHIL,[6],0%
same,EOSINOPHIL,[6],0%
same,ERYTHROCYTE COUNT,[6],5.13 x10E6/uL
same,HEMATOCRIT,[6],30.77%
same,HEMOGLOBIN,[6],12.03 G/DL
same,LEUKOCYTE COUNT,[6],4.97 x10E3/uL
same,LYMPHOCYTE,[6],94.67%
same,MEAN CORPUSCULAR HEMOGLOBIN,[6],23.43 pg
same,MEAN CORPUSCULAR HEMOGLOBIN CONCENTRATION,[6],39.13 G/DL
same,MONOCYTE,[6],0%
same,NEUTROPHIL,[6],5.33%
same,NUCLEATED RED BLOOD CELLS,[6],0 /100WBC
same,PLATELET COUNT,[6],996.33 x10E3/uL
same,ALANINE AMINOTRANSFERASE,[6],78.67 u/L
same,ALKALINE PHOSPHATASE,[6],485.67 u/L
same,ASPARTATE AMINOTRANSFERASE,[6],93 u/L
same,BLOOD UREA NITROGEN,[6],12.67 mg/dL
same,CARBON DIOXIDE,[6],30 mmol/L
same,CHOLESTEROL,[6],72.33 mg/dL
same,CREATINE PHOSPHOKINASE,[6],141.33 u/L
same,CREATININE,[6],0.16 mg/dL
same,GLUCOSE,[6],141.33 mg/dL
same,LACTATE DEHYDROGENASE,[6],102.33 u/L
same,LIPASE,[6],11 u/L
same,POTASSIUM,[6],6.24 MEQ/L
same,SODIUM,[6],149.5 MEQ/L
same,TOTAL BILIRUBIN,[6],0.2 mg/dL
same,URIC ACID,[6],0.97 mg/dL
